Results published in BindingDB's records for doi:10.1021/acs.jmedchem.6b01892 (University of Regensburg, 2017).

Experiments:
[1] = Competitive binding affinity to human muscarinic acetylcholine receptor M2 expressed in […] cell homogenates assessed as W84 pIC50 at 2 nM after 2 hrs by liquid scintillation counting assay
[2] = Competitive binding affinity to human muscarinic acetylcholine receptor M2 expressed in […] cell homogenates assessed as W84 pIC50 at 1 nM after 2 hrs by liquid scintillation counting assay
[3] = Competitive binding affinity to human muscarinic acetylcholine receptor M2 expressed in […] cell homogenates assessed as W84 pIC50 at 0.4 nM after 2 hrs by liquid scintillation counting assay
[4] = Competitive binding affinity to human muscarinic acetylcholine receptor M2 expressed in […] cell homogenates assessed as W84 pIC50 at 4 nM after 2 hrs by liquid scintillation counting assay
[5] = Competitive binding affinity to human muscarinic acetylcholine receptor M2 expressed in […] cells assessed as W84 pIC50 at 15 nM after 2 hrs by liquid scintillation counting assay
[6] = Competitive binding affinity to human muscarinic acetylcholine receptor M2 expressed in […] cells assessed as W84 pIC50 at 8 nM after 2 hrs by liquid scintillation counting assay
[7] = Competitive binding affinity to human muscarinic acetylcholine receptor M2 expressed in […] cells assessed as W84 pIC50 at 4 nM after 2 hrs by liquid scintillation counting assay
[8] = Competitive binding affinity to human muscarinic acetylcholine receptor M2 expressed in […] cells assessed as W84 pIC50 at 2 nM after 2 hrs by liquid scintillation counting assay
[9] = Competitive binding affinity to human muscarinic acetylcholine receptor M2 expressed in […] cells assessed as W84 pIC50 at 30 nM after 2 hrs by liquid scintillation counting assay

Row | IC50 [1] | IC50 [2] | IC50 [3] | IC50 [4] | IC50 [5] | IC50 [6] | IC50 [7] | IC50 [8] | IC50 [9] | SMILES
1 | 10500 nM | 6610 nM | 2690 nM | 18600 nM |  |  |  |  |  | [3H]CC([3H])C(=O)NCc1cc(C(=O)NCCNC(=O)CCc2cn(CCCCC3CCN(CC(=O)N4c5ccccc5NC(=O)c5ccccc54)CC3)cn2)cc(C(=O)NCCNC(=O)CCc2cn(CCCCC3CCN(CC(=O)N4c5ccccc5NC(=O)c5ccccc54)CC3)cn2)c1 (centres undefined)
2 |  |  |  |  | 1350 nM | 631 nM | 282 nM | 182 nM | 2090 nM | [3H]CC([3H])C(=O)NCCNC(=O)CCc1cn(CCCCC2CCN(CC(=O)N3c4ccccc4NC(=O)c4ccccc43)CC2)cn1 (centres undefined)
